Tests used:
[1] = system: PDGFRβ and PLCγ1; experiment: PDGF-induced signaling, immunoblot, PrxII knocked down HASMCs; type: cell-based, human
Method: (§1) The cells were rinsed with an ice-cold phosphate buffered saline (PBS) solution and then lysed in an extraction buffer solution containing 20 mM Hepes (pH 7.0), 1% Triton X-100, 150 mM NaCl, 10% glycerol, 1 mM EDTA, 2 mM EGTA, 1 mM DTT, 5 mM Na3VO4, 5 mM NaF, 1 mM AEBSF, aprotinin (5 μg/ml), and leupeptin (5 μg/ml). After being centrifuged at 12,000×g, the purified cell extracts were used for immunoblotting. In order to adjust the loading, the membranes were stripped by shaking them for 30 minutes at 60° C. in 67 mM Tris (pH 6.7), 2% SDS, and 100 mM 2-mercaptoethanol solution, and reprobed with an appropriate pan antibody.
In addition, the regulatory effects of GT on the PDGFRβ- and VEGFR2-mediated signaling pathway were examined. The GT treatment in HASMCs was quite different from PDGF-induced tyrosine phosphorylation that was enhanced by the PrxII knockdown (FIG. 12a). […] Conversely, the GT treatment in HAECs restored the VEGF-dependent activation of VEGFR2 and ERK that had been diminished by the PrxII knockdown (FIG. 12b). The effects of GT in vascular cell fuction were further validated.

[2] = system: SK-MEL-5 (SK5) cells; experiment: Melanoma proliferation and migration assay, SK5; type: cell-based, human; conditions: 100 nM, 1 hour pretreatment
Method: The extent of cell proliferation was measured using a WST-1 cell proliferation assay kit (Roche Diagnostics, USA) according to the protocol of the manufacturer. The number of cells was expressed as an absorbance value at 450 nm averaged from 3 wells after subtracting the turbidity at 600 nm. The chemotactic transmigration assay was performed in a 24-well Transwell culture chamber (Costar; polycarbonate membrane insert with 8-μm pore size). The bottom of the insert was coated with gelatin B (1 mg/ml) and air-dried for 1 hour. Retroviruses or transfection complexes were treated to melanoma cells (6×10^3). After 24 hours, the infected or transfected melanoma cells were serum-starved for 18 hours. A 20% FBS solution was added to bottom chambers including a basal medium containing 0.5% BSA. The upper chamber wells were each filled with a basal medium including 0.5% BSA. The Transwell chamber was incubated for 12 hours in a 37° C./5% CO2 incubator. After the incubation, the non-migrating cells at the top of the filter were removed. The cells that migrated onto the bottom of filter were fixed and stained with 0.6% hematoxylin and 0.5% eosin. The stained cells were photographed and counted. The number of migrating cells was averaged from 3 wells.

[3] = system: Src/ERK, β-catenin, E-cadherin; experiment: Serum-induced signaling and E-cadherin expression, SK28 cells; type: cell-based, human
Method: as §1
This proves the peroxidase activity of GT. Again, while GT treatment in the SK28 cells reduced Src/ERK activation and β-catenin phosphorylation, it increased the expression of E-cadherin (FIG. 53B). Furthermore, GT reduced the proliferation and the migration responding to serum stimulation in both SK5 and SK28 cells (FIGS. 53C and D).

[4] = system: B16F10 melanoma cells; experiment: Metastasis of B16F10 melanoma cells to lung in mouse; type: in vivo
Method: After B16F10 cells were temporarily transfected with PrxII siRNA for 24 hours and trypsinized, the cells were resuspended in a Hank's balanced salt solution (HBSS). The cell suspension was injected by intravenous injection to a C57/BL6 mouse (1×10^6 cells per mouse). The mouse was sacrified after 10 days, and the lung was removed after transcardia perfusion-fixation with a heparinized saline solution including 3.7% formaldehyde. The removed lung was paraffin embedded and sectioned using a rotary microtome (Leica RM2255). Two serial tissue sections (4 μm in thickness) were stained with haematoxylin and eosin. The melanoma tumor nodules metastasized from the surface of the lung and the HE-stained tissue sections were counted. In order to verify the effects of gliotoxin (GT), chaetocin and chetomin, the melanoma cells were intravenously injected to the C57/BL6 mouse, and then gliotoxin (300 mg/kg) was intraperitoneally injected for 5 times over 10 days.

[5] = system: balloon injured carotid arteries; experiment: Vascular permeability test (Evans blue inflow); conditions: rat, in vivo
Method: Mice were injected intravenously with 100 μl of 5% Evans blue for 30 minutes and then perfused with PBS for 5 minutes. The common carotid arteries were removed from both uninjured collateral and injured ipsilateral ones. The result was dissected, opened longitudinally, and examined on a phase contrast microscope with a magnification of 20×. For quantification, the Evans blue inflowed into the blood vessel was extracted by being placed in formamide at 55° C. overnight and centrifuged for 10 minutes at 12,000 rpm. The supernatants were collected and the absorbance was measured at 620 nm. The background value of the Evans blue dye was measured at 740 nm and substracted from the values in carotid arteries. For VEGFR2 inhibition, SU5416 (20 mg/kg) was injected intraperitoneally for 3 times (Days −1, 1, and 3) before and after the balloon injury. Control injection was made of 200 μl PBS including a vehicle (5% DMSO).
The permeability of the repaired endothelium was examined by Evans blue inflow.

[6] = system: PDGFRβ, PLCγ1, VEGFR2 and ERK; experiment: PDGF and VEGF signaling in vascular cells from PrxII−/− mouse; type: cell-based; conditions: cells separated from PrxII−/− mouse, PDGF-BB or VEGF-A 10 minutes
Method: Aortic vascular smooth muscle (A) and endothelial cells (B) were separated from a normal mouse and a PrxII−/− mouse, and cultured, and then treated with PDGF-BB and VEGF-A for 10 minutes each after either treating with GT or no treating. The activation of PDGFRβ, PLCγ1, VEGFR2 and ERK was analyzed using a phosphorylation-specific binding antibody for each protein.

[7] = system: HASMCs; type: cell-based, human; conditions: up to 100 nM (200 nM for A4, A7, A9)

SMILES: CN1C(=O)[C@]23CC4=CC=C[C@H](O)[C@H]4N2C(=O)[C@@]1(CO)SS3 [gliotoxin]
- level of PDGFRβ and PLCγ1 activation [1]: diminished to the level of stimulated control group cells
- proliferation and migration responding to serum stimulation, SK5 [2]: reduced
- expression of E-cadherin [3]: increased
- Src/ERK activation and β-catenin phosphorylation ([3]; serum stimulation): reduced
- metastasis of B16F10 melanoma cells to lung (tumor nodules) ([4]; i.p. 5 times over 10 days after i.v. injection of B16F10 cells): significantly reduced
- metastasis of PrxII-knocked down B16F10 to lung ([4]; mPrx2-1 siRNA-transfected cells, i.p. 5 times over 10 days): more significantly reduced
- Evans blue inflow compared to DMSO-treated injured carotid arteries [5]: approximately two-third reduction
- effects on PDGF signaling in VSMC and VEGF signaling in VEC [6]: opposed regulatory effects
- proliferation and chemotactic transmigration of HASMCs in response to PDGF, enhanced by PrxII knockdown [7]: gradually reduced

From US10450327B2, “Epidithiodioxopiperazine compound or its derivatives, and the use thereof” (priority 2011, dated 2019)
